Experimental data: patent US5424303A, “Substituted aminophosphonate derivatives, process for their preparation and pharmaceutical compositions containing them” (Symphar SA, priority 1992, dated 1995)
Where a name gives a salt, the structure may show the parent alone.

How the values were obtained:
[1] = tested on: plasma cholesterol; assay: Hypocholesterolemic activity, plasma cholesterol in mice fed test compound in diet; type: in vivo, OF1 strain mice; conditions: for change in vivo at 180 mg/kg/day: Mus musculus, feed or water, 240 h, read-out: Plasma Cholesterol (% Control), 0.1% compound in food, 10 days, ca. 180 mg/kg daily, mouse; for decrease plasma cholesterol by: 0.1% in food
Protocol: A. Hypocholesterolemic activity
Mouse fed a normal diet is a convenient model which was proposed by several authors (P. Olivier et al, Atherosclerosis 70, 107-114, 1988) ,for the screening for hypocholesterolemic drugs. OF1 strain mice (Iffa Credo) weighing between 25 and 35 g were divided into 5 groups of 5 animals each, four groups received the test compounds and the fifth group served as control. The test compounds were dissolved in diethyl ether. The ether solution was added to food to obtain a final concentration of 0.1%. compound in food. Ether was then evaporated at room temperature. The animals were fed for 10 days, the dally food intake corresponds to ca. 180 mg/kg. After an overnight fast, they were sacrificed by decapitation under ether anesthesia. Blood samples were collected using EDTA as anticoagulant.
Plasma cholesterol was measured by an enzymatic test (DIAMED, Morat, Switzerland). The mean values of each group receiving the test or reference compounds were expressed as percent of mean value of the contemporary control.

[2] = tested on: lipid peroxidation (rat liver homogenate); assay: Antioxidant activity, inhibition of iron induced lipid peroxidation in liver homogenate; type: biochemical, Wistar rat; conditions: FeSO4, 37° C., 2 h; <25 μM where IC50 was not determined
Protocol: The liver of a Wistar rat anesthetized with ether was collected and homogenized in 4 volumes of phosphate buffer (+4° C., pH 7.4) by means of a Potter. After centrifugation at 2000 rpm for 10 min the supernatant obtained was kept at +4° C. Lipid peroxidation was carried out in presence of FeSOhd according to the method described by A. T. Quitaniha et at, Ann.
The mixture contained 1.7 ml phosphate buffer, 0.2 ml homogenate and 0.1 ml of a 2 mM FeSO4 solution. The test compounds were added in a volume of 61 μl of ethanol or DMSO. Oxydation was carried out at 37° C. for 2 h and was stopped by the addition of 20 μl of 2% ethanolic solution of BHT.

| Structure (SMILES) | change in vivo at 180 mg/kg/day [1] [%] | IC50 [2] [µM] | Plasma Cholesterol (% Control) ([1]; 0.1% compound in food, 10 days, ca. 180 mg/kg daily, mouse) | decrease plasma cholesterol by ([1]; mouse, 10 days) |
| --- | --- | --- | --- | --- |
| CC(C)OP(=O)(OC(C)C)C(NCCCc1ccccc1)c1cc(C(C)(C)C)c(O)c(C(C)(C)C)c1 (stereo not shown) [Compound 24] | -22 | < 25 | – | – |
| CCCCOP(=O)(OCCCC)C(NCCCc1ccccc1)c1cc(C(C)(C)C)c(O)c(C(C)(C)C)c1 (stereo not shown) [Compound 25] | -4 | < 25 | – | – |
| CCOP(=O)(OCC)C(NCCCc1ccccc1)c1cc(C(C)(C)C)c(O)c(C(C)(C)C)c1 (stereo not drawn) [Compound 26, Hydrochloride salt of diethyl α-(3,5-di-tert-butyl-4-hydroxyphenyl),N-(3-phenylpropyl)-animomethylphosphonate] | – | < 25 | -11 | – |
| CCOP(=O)(OCC)C(NCCCCc1ccccc1)c1cc(C(C)(C)C)c(O)c(C(C)(C)C)c1 (stereo not drawn) [Compound 27, Diethyl α-(3 ,5-di-tert-butyl-4-hydroxyphenyl)-N-(4-phenylbutyl)-aminomethylphosphonate] | -43 | 2.1 | – | more than 30% |
| CCOP(=O)(OCC)C(NCCOc1ccccc1)c1cc(C(C)(C)C)c(O)c(C(C)(C)C)c1 (stereo not shown) [Compound 28] | 4 | < 25 | – | – |
| CCOP(=O)(OCC)C(NC(C)c1ccccc1)c1cc(C(C)(C)C)c(O)c(C(C)(C)C)c1 (stereo not drawn) [Compound 29, Diethyl α-(3,5-di-tert-butyl-4-hydroxyphenyl)-N-(1-phenylethyl)-aminomethyldiphosphonate] | -32 | 5.5 | – | more than 30% |
| CCOP(=O)(OCC)C(NC(C)CCc1ccccc1)c1cc(C(C)(C)C)c(O)c(C(C)(C)C)c1 (stereo not shown) [Compound 30] | -12 | 15.6 | – | – |
| CCOP(=O)(OCC)C(NC(C)c1cccc2ccccc12)c1cc(C(C)(C)C)c(O)c(C(C)(C)C)c1 (stereo not shown) [Compound 31] | -3 | < 25 | – | – |
| CCOP(=O)(OCC)C(NC(c1ccccc1)c1ccccc1)c1cc(C(C)(C)C)c(O)c(C(C)(C)C)c1 (stereo not shown) [Compound 32] | -12 | < 25 | – | – |
| CCOP(=O)(OCC)C(NC(Cc1ccccc1)c1ccccc1)c1cc(C(C)(C)C)c(O)c(C(C)(C)C)c1 (stereo not shown) [Compound 33] | -14 | < 25 | – | – |
| CCOP(=O)(OCC)C(NC1CC(C)(C)NC(C)(C)C1)c1cc(C(C)(C)C)c(O)c(C(C)(C)C)c1 (stereo not shown) [Compound 35] | -17 | > 25 | – | – |
| CCOP(=O)(OCC)C(NC1CCN(Cc2ccccc2)CC1)c1cc(C(C)(C)C)c(O)c(C(C)(C)C)c1 (stereo not shown) [Compound 36] | -6 | < 25 | – | – |
| CCOP(=O)(OCC)C(NCCc1cccn1C)c1cc(C(C)(C)C)c(O)c(C(C)(C)C)c1 (stereo not shown) [Compound 37] | 12 | 4 | – | – |
| CCOP(=O)(OCC)C(NCc1ccc2c(c1)OCO2)c1cc(C(C)(C)C)c(O)c(C(C)(C)C)c1 (stereo not drawn) [Compound 38, Diethyl α-(3,5-di-tert-butyl4-hydroxyphenyl)-N-piperonyl-aminomethylphosphonate] | -40 | 4.3 | – | more than 30% |
| CCOP(=O)(OCC)C(NCc1ccc(OC)c(OC)c1)c1cc(C(C)(C)C)c(O)c(C(C)(C)C)c1 (stereo not shown) [Compound 39] | -4 | 4.9 | – | – |
| CCOP(=O)(OCC)C(Nc1cccnc1)c1cc(C(C)(C)C)c(O)c(C(C)(C)C)c1 (stereo not shown) [Compound 41] | -35 | 3.5 | – | – |

| Structure (SMILES) | change in vivo at 180 mg/kg/day [1] [%] | IC50 [2] [µM] | Plasma Cholesterol (% Control) ([1]; 0.1% compound in food, 10 days, ca. 180 mg/kg daily, mouse) | decrease plasma cholesterol by ([1]; mouse, 10 days) |
| --- | --- | --- | --- | --- |
| CCOP(=O)(OCC)C(NCc1cccnc1)c1cc(C(C)(C)C)c(O)c(C(C)(C)C)c1 (stereo not drawn) [Compound 42, Diethyl α-(3,5-di-tert-butyl-4-hydroxyphenyl)-N-(3-picolyl)-aminomethylphosphonate] | -43 | 12.8 | – | more than 30% |
| CCOP(=O)(OCC)C(NCCc1ccccn1)c1cc(C(C)(C)C)c(O)c(C(C)(C)C)c1 (stereo not drawn) [Compound 43, Diethyl α-(3,5-di-tert-butyl-4-hydroxyphenyl)-N-[2-(2-pyridyl)-ethyl]aminomethyl-phosphonate] | -35 | < 25 | – | more than 30% |
| CCOP(=O)(OCC)C(Nc1nc2ccccc2s1)c1cc(C(C)(C)C)c(O)c(C(C)(C)C)c1 (stereo not drawn) [Compound 44, Diethyl α-(3.5-di-tert-butyl-4-hydroxyphenyl)-N-(2-benzothiazolyl)-aminomethylphosphonate] | -17 | < 25 | – | – |
| CCOP(=O)(OCC)C(NC1(c2ccccc2)CCCC1)c1cc(C(C)(C)C)c(O)c(C(C)(C)C)c1 (stereo not drawn) [Compound 45, Diethyl α-(3,5-di-tert-butyl-4-hydroxyphenyl)-N-(1-phenylcyclopentyl)-aminomethylphosphonate] | -14 | < 25 | – | – |
| CCOP(=O)(OCC)C(NC1CCc2ccccc21)c1cc(C(C)(C)C)c(O)c(C(C)(C)C)c1 (stereo not shown) [Compound 46] | -8 | 3.8 | – | – |
| CCOP(=O)(OCC)C(Nc1ccc2c(c1)CCC2)c1cc(C(C)(C)C)c(O)c(C(C)(C)C)c1 (stereo not shown) [Compound 47] | -2 | 2.7 | – | – |
| CCOP(=O)(OCC)C(Nc1ccc2c(c1)Cc1ccccc1-2)c1cc(C(C)(C)C)c(O)c(C(C)(C)C)c1 (stereo not shown) [Compound 48] | 3 | < 25 | – | – |
| CCOP(=O)(OCC)C(c1cc(C(C)(C)C)c(O)c(C(C)(C)C)c1)N(C)Cc1cccnc1 (stereo not drawn) [Compound 49, Diethyl α-(3.,5-di-tert-butyl-4-hydroxyphenyl)-N-methyl-N-(3-picolyl)aminomethylphosphonate] | -19 | 12.8 | – | – |
| CCOP(=O)(OCC)C(c1cc(C(C)(C)C)c(O)c(C(C)(C)C)c1)N(C)c1ccccc1 (stereo not shown) [Compound 50] | 5 | 2.9 | – | – |
| COP(=O)(OC)C(c1cc(C(C)(C)C)c(O)c(C(C)(C)C)c1)N(CCCc1ccccc1)C(C)=O (stereo not shown) [Compound 59] | -36 | < 25 | – | – |
| CCOP(=O)(OCC)C(c1cc(C(C)(C)C)c(O)c(C(C)(C)C)c1)N(CCCc1ccccc1)C(C)=O (stereo not drawn) [Compound 60, Diethyl α-(3,5-di-tert-butyl-4-hydroxyphenyl)-N-acetyl-N-(3-phenylpropyl)-aminomethylphosphonate] | -49 | 2.6 | – | more than 30% |
| CCCOP(=O)(OCCC)C(c1cc(C(C)(C)C)c(O)c(C(C)(C)C)c1)N(CCCc1ccccc1)C(C)=O (stereo not shown) [Compound 61] | -43 | < 25 | – | more than 30% |
| CC(=O)N(CCCc1ccccc1)C(c1cc(C(C)(C)C)c(O)c(C(C)(C)C)c1)P(=O)(OC(C)C)OC(C)C (stereo not shown) [Compound 62] | -32 | < 25 | – | more than 30% |
| CCCCOP(=O)(OCCCC)C(c1cc(C(C)(C)C)c(O)c(C(C)(C)C)c1)N(CCCc1ccccc1)C(C)=O (stereo not shown) [Compound 63] | 4 | < 25 | – | – |
| CCOP(=O)(OCC)C(NC1CCCCC1)c1cc(C(C)(C)C)c(O)c(C(C)(C)C)c1 (stereo not shown) [Compound 65] | 7 | < 25 | – | – |
